One molecule from publication PMC4573335 (Biochemistry, 2015) can be followed below.

In the assay the target is T1, hALAS2 (human erythroid-specific 5-aminolevulinate synthase) (Homo sapiens, UniProt P22557).
T1 sequence (P22557 80-587): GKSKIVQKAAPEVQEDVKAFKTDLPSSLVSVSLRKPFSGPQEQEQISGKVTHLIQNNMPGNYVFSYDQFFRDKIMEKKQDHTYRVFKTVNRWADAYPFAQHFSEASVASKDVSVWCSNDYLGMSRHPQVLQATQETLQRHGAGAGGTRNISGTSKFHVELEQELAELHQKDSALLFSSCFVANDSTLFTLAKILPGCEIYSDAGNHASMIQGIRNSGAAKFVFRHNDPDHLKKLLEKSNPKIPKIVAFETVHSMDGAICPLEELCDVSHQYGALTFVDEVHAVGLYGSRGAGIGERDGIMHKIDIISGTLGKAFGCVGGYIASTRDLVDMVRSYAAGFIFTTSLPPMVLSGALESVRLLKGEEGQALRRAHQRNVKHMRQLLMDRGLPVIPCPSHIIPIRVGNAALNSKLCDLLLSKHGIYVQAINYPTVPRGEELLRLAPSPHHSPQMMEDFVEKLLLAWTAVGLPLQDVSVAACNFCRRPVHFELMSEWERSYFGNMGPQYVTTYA
The experiment in a line: absorption spectroscopy, A420/A330 ratio. It counts as binding. Conditions: PLP holoenzyme.

Molecules are shown by their SMILES.

`NCC(=O)O` [glycine]: the “absorption spectroscopy, A420/A330 ratio (PLP-glycine aldimine)” value is “In all cases, the A420/A330 ratio was increased upon reaction with glycine”.
